Counter-ions that a name gives are not always drawn. Like-named read-outs stand apart in the source and are kept apart here.
How the values were obtained:
[1] = target: T1, human P5C reductase 1 (PYCR1) (Homo sapiens, UniProt P32322); experiment: P5C reductase assay (P5C-dependent oxidation of NAD(P)H); format: biochemical; conditions: for effect on the activity of human P5C reductase: at concentrations as low as 1 μM
T1 construct: His-tag; made in house; host or cells: E. coli BL21(DE3) pLysS
T1 sequence (P32322 1-319): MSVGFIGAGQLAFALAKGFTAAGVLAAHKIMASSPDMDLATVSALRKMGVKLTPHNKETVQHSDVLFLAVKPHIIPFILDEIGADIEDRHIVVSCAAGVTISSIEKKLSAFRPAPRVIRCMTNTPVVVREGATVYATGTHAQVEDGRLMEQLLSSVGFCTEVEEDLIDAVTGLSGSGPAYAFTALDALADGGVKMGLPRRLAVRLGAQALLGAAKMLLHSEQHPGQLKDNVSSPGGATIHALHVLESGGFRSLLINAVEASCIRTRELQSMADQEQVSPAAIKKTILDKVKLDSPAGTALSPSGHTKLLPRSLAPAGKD
Procedure: The gene coding for P5C reductase 1 (PYCR1, gene ID 5831), cloned into the expression vector pET28a^+[34], was kindly provided by prof. Zihe Rao (Tsinghua University, China). For heterologous expression, E. coli BL21(DE3) pLysS cells (Invitrogen) were made competent by the calcium chloride method, transformed with the recombinant vector and selected on kanamycin-containing LB plates. About 6 h after inducing gene expression in liquid LB medium at 24 °C by the addition of 1 mM isopropyl-D-thiogalactopyranoside, cells were harvested by centrifugation and stored at −20 °C. Aliquots (about 1 g cell material) were lysed in an ice-cold mortar with 2 g g^−1 alumina and resuspended in 20 mL g^−1 extraction buffer (50 mM Na phosphate buffer, pH 7.5, containing 200 mM NaCl and 20 mM imidazole). The His-tagged protein was purified from clarified extracts by affinity chromatography onto a His-Trap^TM FF column (1 mL, GE Healthcare 17–5319-01). Stepwise elution was achieved by increasing concentrations of imidazole in extraction buffer. Discontinuous SDS–polyacrylamide gel electrophoresis was performed at 8 mA with a 5% stacking and a 12% separating gel, using a Minigel system (BioRad). Samples were mixed with the same volume of 125 mM Tris–HCl buffer (pH 6.8) containing 4% (w/v) SDS, 20% (v/v) glycerol and 10% (v/v) β-mercaptoethanol, and denatured 5 min at 100 °C. Proteins were visualised by soaking gels in Quick Coomassie Stain (CliniSciences) overnight.
Enzyme activity was measured at 30 °C as the P5C-dependent oxidation of NAD(P)H. Assays were performed in 96-microwell plates in a final volume of 0.2 mL. The assay mixture contained 4 mM DL-P5C and 0.5 mM of either NADH or NADPH in 50 mM Tris-HCl buffer, pH 7.5. Parallel blanks were performed in which P5C had been omitted. The decrease of absorbance was measured for 5 min at 0.5-min intervals using a Ledetect plate reader (Labexim, Lengau, Austria) equipped with a LED plugin at 340 nm. Residual NAD(P)H content was estimated on the basis of calibration curves obtained under the same conditions. Activity was calculated by linear regression of data using Prism 6 for Windows, version 6.03 (GraphPad Software, San Diego, CA); one unit of activity was defined as the amount of enzyme that catalyses the P5C-dependent oxidation of 1 nmol NAD(P)H s^−1 (nkat). Proteins were measured by the Coomassie Brilliant Blue method, using bovine serum albumin as the standard. To evaluate substrate affinity, invariable substrates were fixed at the same levels as in the standard assay. For variable substrates, L-P5C ranged from 400 to 2000 μM, while the concentration of NADH and NADPH ranged from 125 to 500 μM. To evaluate the inhibition brought about by pargylines and aminomethylene-bisphosphonates, freshly prepared 10 mM stock solution in water and 100 mM Tris-HCl buffer pH 7.5, respectively, were diluted with water and added to the reaction mixture before enzyme addition. Parallel control samples were carried out in the absence of any inhibitor. Activity was calculated as described above. Mean activity value in controls was set as 100%, and activity in treated samples was expressed as percent of such value. Percent values were plotted against the logarithm of inhibitor concentration, and data were interpolated using the equation Y = 100/(1 + 10^∧((LogIC50-X)*HillSlope)). Assays were performed in triplicate (technical replications). Each experiment was repeated at least twice with different enzyme preparations (biological replicates). KM and Vmax values, as well as the concentrations causing 50% inhibition (IC50), KI values and their confidence intervals were estimated by non-linear regression analysis using Prism 6.

glutamine synthetase = conditions: human enzyme; cited from earlier work
human P5C reductase = conditions: cited from earlier work
breast cancer cell = conditions: at 10 μM; cited from earlier work
[2] = tested on: human myelogenous erythroleukemic K562 cells; experiment: Antiproliferative assay, K562 cells; format: cell-based; conditions: for IC50: Homo sapiens, K562
Procedure: (§1) Human myelogenous erythroleukemic K562 cells[36] were cultured in a humidified atmosphere of 5% CO2/air either in complete RPMI 1640 medium (Lonza, Verviers, Belgium) or in a modified medium without L-proline (United States Biological, Massachusetts, USA), both supplemented with 10% foetal bovine serum (FBS; Biowest, Nuaillé, France), 100 U mL^−1 penicillin and 100 μg mL^−1 streptomycin. Human epithelial breast cancer MDA-MB-231 cells[37] were cultured under the same conditions in DMEM medium (Lonza, Verviers, Belgium) supplemented with 10% FBS, 100 U mL^−1 penicillin, 100 μg mL^−1 streptomycin and 2 mM L-glutamine.
(§2) K562 cells in the late exponential phase of growth were seeded in 1 mL medium without FBS in 24-well plates to an initial density of about 20,000 cells mL^−1. Treatments with Br2PAMBPA in the range 1–200 µM were carried out 5 h after seeding. Cell growth was monitored at increasing time after the treatment by determining cell density on 50-μL aliquots with a Z1 Coulter Counter (Coulter Electronics), considering a dimensional range between 8 and 20 μm. MDA-MB-231 cells in the late exponential phase of growth (90% confluence) were washed with sterile PBS, incubated with sterile trypsin-EDTA solution (Sigma-Aldrich, Saint Louis, USA) for 2 min, resuspended in fresh DMEM medium and centrifuged at 1000 g at room temperature for 5 min. Pellets were resuspended in sterile PBS and spun again to remove any residue of trypsin. Cells were finally resuspended in DMEM medium without FBS, and seeded in 24-well plates in a final volume of 1 mL to an initial density of about 20,000 cells mL^−1. Treatments with Br2PAMBPA in the range 1–200 µM were carried out 5 h after seeding, and 2% FBS was added to each well 24 h thereafter. Cell growth was monitored at increasing time after the treatment by destructive harvest. For both cell lines each treatment was carried out at least in triplication, and each experiment was performed at least twice.

K562 cells [3] = experiment: Cell viability assay (Trypan Blue exclusion), K562 cells; format: cell-based, human; conditions: modified RPMI medium not containing proline, 96 h after the inoculum
Procedure: Cell viability was assessed by the Trypan Blue exclusion test[38]. Stained cells were counted in a Bürker chamber. Viable and nonviable cells were recorded separately, and the results of three independent counts were pooled. Data were expressed as percent of alive cells.

K562 cells [4] = experiment: Measurement of intracellular free proline and P5C levels, K562 cells; format: cell-based, human
Procedure: For proline and P5C quantification, treatments were carried out in T-25 flasks containing 10 mL medium. Cells were harvested by centrifugation at 1000 g for 5 min at RT. Each pellet was resuspended in 1.4 mL of sterile PBS and spun again to remove the medium. Washed pellets were transferred on ice, resuspended in a minimal volume of a 3% (w/v) solution of 5-sulfosalicylic acid and subjected to various freeze-thaw cycles to induce rupture of the phospholipid membrane. Cell debris were sedimented by centrifugation at 12,000 g for 5 min at RT, and the supernatants were analysed by the acid ninhydrin method of Williams and Frank, as described.

[5] = tested on: human epithelial breast cancer MDA-MB-231 cells; experiment: Antiproliferative assay, MDA-MB-231 cells; format: cell-based
Procedure: as §1
as §2, with “Cells were finally resuspended in DMEM medium without FBS, and seeded in 24-well plates in a final volume of 1 mL to an initial density of about 20,000 cells mL^−1.” left out

[6] = IC50, NADH as the electron donor
[7] = IC50, NADPH as the electron donor
[8] = IC50 values, abstract, cofactor not specified
[9] = treated serum-free, 2% FBS added 24 h thereafter

O=P(O)(O)C(Nc1cc(Cl)cc(Cl)c1)P(=O)(O)O [3,5-Cl2PAMBPA]
IC50 [1, 6]: 0.78 ± 0.04 µM
IC50 [1, 7]: 0.74 ± 0.06 µM
IC50 [1, 8]: < 1 µM
mechanism of inhibition against both P5C and NADPH ([1]; abstract): competitive type
effect on the activity of human P5C reductase [1]: almost completely suppressed
IC50 (glutamine synthetase): 780 ± 30 µM

C#CCN(C)Cc1ccc(Br)cc1 [4-bromopargyline, reference compound]
IC50 [1, 6]: 234 ± 28 µM
IC50 [1, 7]: 9 µM
IC50 ([1]; NADPH as the electron donor, read-out: IC50): 8.7 ± 0.8 µM
IC50 (human P5C reductase): 9 µM
reduction of breast cancer cell proliferation (breast cancer cell): 30–40%

O=P(O)(O)C(Nc1cc(Br)cc(Br)c1)P(=O)(O)O [Br2PAMBPA, 3,5-dibromophenylaminomethylene-bisphosphonic acid]
type of inhibition with NADH as the variable substrate [1]: mixed-type
IC50 [1, 6]: 0.48 ± 0.03 µM
IC50 [1, 7]: 0.39 ± 0.03 µM
IC50 [1, 8]: < 1 µM
Ki ([1]; NADH as variable substrate (Fig. 4D)): 0.66 ± 0.21 µM
Ki ([1]; NADPH as variable substrate (Fig. 4C)): 0.48 ± 0.08 µM
Ki ([1]; P5C as variable substrate, NADH as electron donor (Fig. 4B)): 0.12 ± 0.01 µM
Ki ([1]; P5C as variable substrate, NADPH as electron donor (Fig. 4A)): 0.32 ± 0.02 µM
mechanism of inhibition against both P5C and NADPH ([1]; abstract): competitive type
effect on the activity of human P5C reductase [1]: almost completely suppressed
type of inhibition against P5C ([1]; with NADPH or NADH as the electron donor): competitive type
IC50 ([2]; modified RPMI medium not containing proline, read-out: concentration giving 50%-inhibition of growth): ~20 µM
IC50 ([2]; unmodified RPMI medium containing 20 mg L^−1 (174 μM) Pro, read-out: concentration giving 50% inhibition of growth): ~7 µM
concentrations progressively impairing growth ([2]; abstract): 10^−6 to 10^−4 M
concentration range in which growth was inhibited ([2]; modified RPMI medium not containing proline): 2 to 200 µM
concentrations at which cell viability was significantly reduced (K562 cells [3]): exceeding 50 µM
levels of P5C (K562 cells [4]; all cases, detection limit printed as > 1 nmol [10^6 cells]^−1): no detectable
free proline concentration (K562 cells [4]; control and treated K562 cells, with or without exogenous proline): 4–5 nmol (10^6 cells)^−1
intracellular levels of free proline vs controls (K562 cells [4]; modified RPMI medium not containing proline, 96 h after the inoculum): not significantly different than in controls
reduction of free proline content with respect to viable cells (K562 cells [4]; unmodified RPMI medium with 20 mg L^−1 Pro, at 50 µM): less than 50%
free proline content with respect to viable cells (K562 cells [4]; unmodified RPMI medium with 20 mg L^−1 Pro, up to 50 µM): no reduction was evident
effect on cell proliferation in standard medium ([5]; DMEM with FBS, concentrations exceeding 50 μM, preliminary, data not shown): only mild effects
concentrations progressively impairing growth ([5]; abstract): 10^−6 to 10^−4 M
concentration from which cell growth rate and maximal cell density were progressively reduced [5, 9]: ≥ 5 µM
concentration from which cell proliferation was completely abolished [5, 9]: ≥ 50 µM

C#CCN(C)Cc1ccccc1 [Pargyline, N-methyl-N-(2-propynyl)benzylamine hydrochloride, reference compound]
IC50 [1, 6]: > 10000 µM
IC50 [1, 7]: 81 µM
IC50 (human P5C reductase; listed as pargylin): 200 µM
IC50 (human P5C reductase; listed as pargyline): 198 µM

Reference: paper PMC8205077, “Phenyl-substituted aminomethylene-bisphosphonates inhibit human P5C reductase and show antiproliferative activity against proline-hyperproducing tumour cells” (Journal of Enzyme Inhibition and Medicinal Chemistry, 2021)
